Measured values reported in PubChem BioAssay (NCI).
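How tested: cells in 96-well plates exposed to compound for 48 hours at five concentrations. Here, GI50 denotes the concentration required for 50% inhibition of growth. The concentration for full growth arrest is given as TGI.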

Assays:
Test in all cases: inhibition of tumour cell growth, NCI panel, 48 h
NCI/ADR-RES ovarian = system: NCI/ADR-RES ovarian
PC-3 prostate = system: PC-3 prostate
RXF 393 renal = system: RXF 393 renal
SF-268 CNS = system: SF-268 CNS
K-562 leukemia = system: K-562 leukemia
NCI-H522 lung = system: NCI-H522 lung
HS 578T breast = system: HS 578T breast
TK-10 renal = system: TK-10 renal
LOX IMVI melanoma = system: LOX IMVI melanoma
HCT-116 colon = system: HCT-116 colon
ACHN renal = system: ACHN renal
OVCAR-8 ovarian = system: OVCAR-8 ovarian
786-0 renal = system: 786-0 renal
SW-620 colon = system: SW-620 colon
UACC-62 melanoma = system: UACC-62 melanoma
DU-145 prostate = system: DU-145 prostate
SK-OV-3 ovarian = system: SK-OV-3 ovarian
NCI-H226 lung = system: NCI-H226 lung
HCT-15 colon = system: HCT-15 colon
A549 NSCLC = system: A549 NSCLC
M14 melanoma = system: M14 melanoma
T-47D breast = system: T-47D breast
KM12 colon = system: KM12 colon
MOLT-4 leukemia = system: MOLT-4 leukemia
SK-MEL-28 melanoma = system: SK-MEL-28 melanoma
SNB-19 CNS = system: SNB-19 CNS
NCI-H23 lung = system: NCI-H23 lung
SNB-75 CNS = system: SNB-75 CNS
MCF7 breast = system: MCF7 breast
UACC-257 melanoma = system: UACC-257 melanoma
RPMI-8226 leukemia = system: RPMI-8226 leukemia
HL-60(TB) leukemia = system: HL-60(TB) leukemia
MALME-3M melanoma = system: MALME-3M melanoma
SF-295 CNS = system: SF-295 CNS
BT-549 breast = system: BT-549 breast
OVCAR-5 ovarian = system: OVCAR-5 ovarian
EKVX NSCLC = system: EKVX NSCLC
A498 renal = system: A498 renal
MDA-MB-435 = system: MDA-MB-435
HOP-62 NSCLC = system: HOP-62 NSCLC
SN12C renal = system: SN12C renal
SF-539 CNS = system: SF-539 CNS
OVCAR-3 ovarian = system: OVCAR-3 ovarian
IGROV1 ovarian = system: IGROV1 ovarian
UO-31 renal = system: UO-31 renal
HCC-2998 colon = system: HCC-2998 colon
CCRF-CEM leukemia = system: CCRF-CEM leukemia
MDA-MB-231 breast = system: MDA-MB-231 breast
HT29 colon = system: HT29 colon
NCI-H460 lung = system: NCI-H460 lung
CAKI-1 renal = system: CAKI-1 renal
OVCAR-4 ovarian = system: OVCAR-4 ovarian
SK-MEL-5 melanoma = system: SK-MEL-5 melanoma
SK-MEL-2 melanoma = system: SK-MEL-2 melanoma
HOP-92 NSCLC = system: HOP-92 NSCLC
COLO 205 colon = system: COLO 205 colon
U251 CNS = system: U251 CNS

O=C(NC1CCCCC1)OCc1c(COC(=O)NC2CCCCC2)c(-c2ccc(Cl)c(Cl)c2)n2c1CCC2
GI50 (NCI/ADR-RES ovarian): 4.24 µM
TGI (NCI/ADR-RES ovarian): 18.6 µM
GI50 (PC-3 prostate): 6.05 µM
TGI (PC-3 prostate): 29.3 µM
GI50 (RXF 393 renal): 2.87 µM
TGI (RXF 393 renal): 9.36 µM
GI50 (SF-268 CNS): 3.79 µM
TGI (SF-268 CNS): 21.3 µM
GI50 (K-562 leukemia): 4.83 µM
TGI (K-562 leukemia): > 100 µM
GI50 (NCI-H522 lung): 3.01 µM
TGI (NCI-H522 lung): 11.8 µM
GI50 (HS 578T breast): 3.72 µM
TGI (HS 578T breast): 21.4 µM
GI50 (TK-10 renal): 3.72 µM
TGI (TK-10 renal): 31.7 µM
GI50 (LOX IMVI melanoma): 2.98 µM
TGI (LOX IMVI melanoma): 16.4 µM
GI50 (HCT-116 colon): 3.72 µM
TGI (HCT-116 colon): 15.2 µM
GI50 (ACHN renal): 3.04 µM
TGI (ACHN renal): 41.6 µM
GI50 (OVCAR-8 ovarian): 4.3 µM
TGI (OVCAR-8 ovarian): 32.3 µM
GI50 (786-0 renal): 3.26 µM
TGI (786-0 renal): 10.7 µM
GI50 (SW-620 colon): 3.89 µM
TGI (SW-620 colon): 22.6 µM
GI50 (UACC-62 melanoma): 2.37 µM
TGI (UACC-62 melanoma): 12.9 µM
GI50 (DU-145 prostate): 3.72 µM
TGI (DU-145 prostate): 20.9 µM
GI50 (SK-OV-3 ovarian): 2.58 µM
TGI (SK-OV-3 ovarian): 11.8 µM
GI50 (NCI-H226 lung): 2.51 µM
TGI (NCI-H226 lung): 22.4 µM
GI50 (HCT-15 colon): 5.56 µM
TGI (HCT-15 colon): 43.2 µM
GI50 (A549 NSCLC): 7.47 µM
TGI (A549 NSCLC): 94.2 µM
GI50 (M14 melanoma): 4.17 µM
TGI (M14 melanoma): 16.3 µM
GI50 (T-47D breast): 3.83 µM
TGI (T-47D breast): 19.5 µM
GI50 (KM12 colon): 11.9 µM
TGI (KM12 colon): 29.3 µM
GI50 (MOLT-4 leukemia): 2.6 µM
TGI (MOLT-4 leukemia): > 100 µM
GI50 (SK-MEL-28 melanoma): 14.2 µM
TGI (SK-MEL-28 melanoma): 45.3 µM
GI50 (SNB-19 CNS): 5.79 µM
TGI (SNB-19 CNS): 47.6 µM
GI50 (NCI-H23 lung): 4.35 µM
TGI (NCI-H23 lung): 21 µM
GI50 (SNB-75 CNS): 4.19 µM
TGI (SNB-75 CNS): 25 µM
GI50 (MCF7 breast): 3.83 µM
TGI (MCF7 breast): 27.9 µM
GI50 (UACC-257 melanoma): 10.8 µM
TGI (UACC-257 melanoma): 37.4 µM
GI50 (RPMI-8226 leukemia): 4.55 µM
TGI (RPMI-8226 leukemia): 29 µM
GI50 (HL-60(TB) leukemia): 2.24 µM
TGI (HL-60(TB) leukemia): > 100 µM
GI50 (MALME-3M melanoma): 5.92 µM
TGI (MALME-3M melanoma): 22.7 µM
GI50 (SF-295 CNS): 3.38 µM
TGI (SF-295 CNS): 29.1 µM
GI50 (BT-549 breast): 3.53 µM
TGI (BT-549 breast): 14.2 µM
GI50 (OVCAR-5 ovarian): 5.19 µM
TGI (OVCAR-5 ovarian): 44.3 µM
GI50 (EKVX NSCLC): 9.79 µM
TGI (EKVX NSCLC): 94.4 µM
GI50 (A498 renal): 1.59 µM
TGI (A498 renal): 3.32 µM
GI50 (MDA-MB-435): 8.23 µM
TGI (MDA-MB-435): 28.8 µM
GI50 (HOP-62 NSCLC): 4.57 µM
TGI (HOP-62 NSCLC): 21 µM
GI50 (SN12C renal): 3.58 µM
TGI (SN12C renal): > 100 µM
GI50 (SF-539 CNS): 3.06 µM
TGI (SF-539 CNS): 13.7 µM
GI50 (OVCAR-3 ovarian): 5.32 µM
TGI (OVCAR-3 ovarian): 22.3 µM
GI50 (IGROV1 ovarian): 5.62 µM
TGI (IGROV1 ovarian): > 100 µM
GI50 (UO-31 renal): 3.17 µM
TGI (UO-31 renal): 16.2 µM
GI50 (HCC-2998 colon): 10.5 µM
TGI (HCC-2998 colon): 23 µM
GI50 (CCRF-CEM leukemia): 3.21 µM
TGI (CCRF-CEM leukemia): > 100 µM
GI50 (MDA-MB-231 breast): 5.6 µM
TGI (MDA-MB-231 breast): 50.7 µM
GI50 (HT29 colon): 4.97 µM
TGI (HT29 colon): 71.4 µM
GI50 (NCI-H460 lung): 1.19 µM
TGI (NCI-H460 lung): 14.1 µM
GI50 (CAKI-1 renal): 2.35 µM
TGI (CAKI-1 renal): > 100 µM
GI50 (OVCAR-4 ovarian): 3.42 µM
TGI (OVCAR-4 ovarian): 62.9 µM
GI50 (SK-MEL-5 melanoma): 7.06 µM
TGI (SK-MEL-5 melanoma): 20.8 µM
GI50 (SK-MEL-2 melanoma): 3.72 µM
TGI (SK-MEL-2 melanoma): 12.7 µM
GI50 (HOP-92 NSCLC): 1.94 µM
TGI (HOP-92 NSCLC): 12.5 µM
GI50 (COLO 205 colon): 4.2 µM
TGI (COLO 205 colon): 16.6 µM
GI50 (U251 CNS): 4.43 µM
TGI (U251 CNS): 22.8 µM
